In ChEMBL document CHEMBL1201862, “PubChem BioAssay data set” (2004):
Active and inactive are the calls of the source.

Assays:
[1] = system: HEK293; assay: cells; conditions: Homo sapiens
[2] = system: HEK293; assay: cells; conditions: Homo sapiens; remark: listed apart in the source
[3] = target: Cytochrome P450 2C9 (Homo sapiens, UniProt P11712)
[4] = target: Cytochrome P450 2C19 (Homo sapiens, UniProt P33261); assay: Cytochrome panel assay with activity outcomes. Panel member name: p450-cyp2c19 Compounds with AC50 equal or less than 10 uM are considered active; assay type: functional; conditions: read-out: AC50
Cytochrome P450 2C19, sequence (P33261 whole entry): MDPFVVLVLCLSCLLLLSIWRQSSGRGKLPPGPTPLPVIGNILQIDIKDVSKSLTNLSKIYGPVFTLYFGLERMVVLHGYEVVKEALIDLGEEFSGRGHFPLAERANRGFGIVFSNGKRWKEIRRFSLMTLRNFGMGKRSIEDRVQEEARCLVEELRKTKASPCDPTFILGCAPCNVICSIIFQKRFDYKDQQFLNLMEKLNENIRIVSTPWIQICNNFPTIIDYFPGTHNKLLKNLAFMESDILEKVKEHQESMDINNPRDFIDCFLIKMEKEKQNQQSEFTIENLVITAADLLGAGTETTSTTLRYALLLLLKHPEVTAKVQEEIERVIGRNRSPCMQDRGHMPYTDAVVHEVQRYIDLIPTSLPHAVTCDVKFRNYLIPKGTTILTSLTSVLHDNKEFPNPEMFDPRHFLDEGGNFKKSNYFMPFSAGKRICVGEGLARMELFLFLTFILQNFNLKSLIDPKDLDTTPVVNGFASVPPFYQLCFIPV

[5] = target: Cytochrome P450 3A4 (Homo sapiens, UniProt P08684);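 also: CYP3A4 tested as one member of a cytochrome P450 panel screen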
Cytochrome P450 3A4, sequence (P08684 whole entry): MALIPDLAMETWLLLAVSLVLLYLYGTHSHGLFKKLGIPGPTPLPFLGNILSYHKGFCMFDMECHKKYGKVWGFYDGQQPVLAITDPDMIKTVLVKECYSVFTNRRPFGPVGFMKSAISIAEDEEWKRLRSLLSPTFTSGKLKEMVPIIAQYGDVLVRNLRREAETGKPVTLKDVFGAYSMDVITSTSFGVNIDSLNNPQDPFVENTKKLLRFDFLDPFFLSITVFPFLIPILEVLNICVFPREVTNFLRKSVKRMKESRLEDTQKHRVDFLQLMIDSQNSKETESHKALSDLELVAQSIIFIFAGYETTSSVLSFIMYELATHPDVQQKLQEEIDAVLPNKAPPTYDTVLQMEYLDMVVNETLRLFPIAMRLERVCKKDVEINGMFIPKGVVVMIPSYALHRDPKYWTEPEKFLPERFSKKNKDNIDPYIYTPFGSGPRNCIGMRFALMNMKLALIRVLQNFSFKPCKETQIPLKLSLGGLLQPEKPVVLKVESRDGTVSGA

[6] = system: Escherichia coli; assay: microbe, parasite or virus in culture
[7] = target: Cytochrome P450 2D6 (Homo sapiens, UniProt P10635);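 also: CYP2D6 member of a cytochrome P450 panel assay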
Cytochrome P450 2D6, sequence (P10635 whole entry): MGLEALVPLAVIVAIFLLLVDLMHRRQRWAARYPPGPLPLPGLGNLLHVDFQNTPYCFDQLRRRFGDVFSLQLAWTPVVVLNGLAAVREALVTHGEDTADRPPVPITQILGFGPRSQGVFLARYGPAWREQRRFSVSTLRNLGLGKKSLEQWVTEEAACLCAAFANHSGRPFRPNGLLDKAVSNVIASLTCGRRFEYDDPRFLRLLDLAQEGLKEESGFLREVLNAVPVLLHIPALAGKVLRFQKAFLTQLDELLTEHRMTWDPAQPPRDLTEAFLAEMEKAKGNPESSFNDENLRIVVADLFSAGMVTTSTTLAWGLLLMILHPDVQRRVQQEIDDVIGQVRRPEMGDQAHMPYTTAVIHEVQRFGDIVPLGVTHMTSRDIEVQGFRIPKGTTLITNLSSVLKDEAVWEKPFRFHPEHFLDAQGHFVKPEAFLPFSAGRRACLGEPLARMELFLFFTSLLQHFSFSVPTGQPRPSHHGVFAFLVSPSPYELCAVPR

[8] = system: INS1; assay: INS-1E survival protection against cytokine death – cell-based, luminescence, retest, dose response (AID 449756); assay type: functional; conditions: Rattus norvegicus;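 also: cell death triggered by IL-1 beta plus TNF-alpha plus IFN-gamma mixture; protective hits raise ATP signal compared with cytokine alone wells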
[9] = target: Nucleotide-binding oligomerization domain-containing protein 2 (Homo sapiens, UniProt Q9HC29); assay: inhibition of NOD2-driven NF-kB reporter – cell-based, luminescence, uHTS, HEK293 (AID 1566); assay type: functional
Nucleotide-binding oligomerization domain-containing protein 2, sequence (Q9HC29 whole entry, the tested form may be a part): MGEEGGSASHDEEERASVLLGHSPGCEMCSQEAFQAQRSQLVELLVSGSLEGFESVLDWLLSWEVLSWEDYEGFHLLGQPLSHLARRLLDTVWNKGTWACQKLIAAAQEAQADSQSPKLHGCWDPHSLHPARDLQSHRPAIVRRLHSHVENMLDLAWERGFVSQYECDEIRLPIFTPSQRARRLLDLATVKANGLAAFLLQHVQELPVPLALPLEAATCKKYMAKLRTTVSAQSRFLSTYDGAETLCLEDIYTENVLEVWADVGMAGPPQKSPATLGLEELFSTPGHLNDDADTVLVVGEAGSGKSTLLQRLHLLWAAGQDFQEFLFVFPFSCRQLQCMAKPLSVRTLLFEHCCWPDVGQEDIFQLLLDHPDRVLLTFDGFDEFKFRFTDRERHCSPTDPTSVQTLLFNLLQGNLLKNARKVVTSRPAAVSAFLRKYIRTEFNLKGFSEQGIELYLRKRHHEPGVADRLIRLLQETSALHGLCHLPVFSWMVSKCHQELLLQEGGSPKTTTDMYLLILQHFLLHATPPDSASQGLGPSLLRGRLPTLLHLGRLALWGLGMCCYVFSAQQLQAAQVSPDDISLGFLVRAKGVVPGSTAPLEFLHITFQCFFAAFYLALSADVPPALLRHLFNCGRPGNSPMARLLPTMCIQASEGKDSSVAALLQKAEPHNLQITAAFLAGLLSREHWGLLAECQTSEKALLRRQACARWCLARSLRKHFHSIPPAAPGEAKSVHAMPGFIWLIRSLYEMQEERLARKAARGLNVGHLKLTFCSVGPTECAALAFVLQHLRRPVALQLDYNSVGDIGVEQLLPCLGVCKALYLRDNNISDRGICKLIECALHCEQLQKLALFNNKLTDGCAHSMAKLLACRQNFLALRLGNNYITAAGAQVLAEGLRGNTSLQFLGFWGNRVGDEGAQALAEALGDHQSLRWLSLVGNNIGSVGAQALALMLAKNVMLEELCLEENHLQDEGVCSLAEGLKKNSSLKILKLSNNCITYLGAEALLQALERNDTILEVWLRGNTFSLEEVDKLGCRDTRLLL

[10] = system: Streptococcus sp. 'group A'; assay: Streptococcus pyogenes SK(-)GAS viability under kanamycin – luminescence, BacTiterGlo, confirmation, counter-screen for streptokinase expression inhibitor project, dose response (AID 1900); assay type: functional, organism-based
[11] = system: Streptococcus; assay: GAS UMAA2166 growth inhibition – luminescence, BacTiterGlo, counter-screen for streptokinase expression inhibitor project, dose response (AID 1915); assay type: functional, organism-based;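 also: potency for reduction of bacterial viability or growth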
[12] = system: HEK293; assay: NOD2 signaling inhibitors in MDP-stimulated cells, cell-based, uHTS, luminescence (AID 2001); assay type: functional; conditions: Homo sapiens
[13] = system: HEK293; assay: inhibition of NOD1-driven NF-kB reporter – cell-based, luminescence, uHTS, primary screen (AID 1578); assay type: functional; conditions: Homo sapiens
[14] = system: HEK293; assay: cells; assay type: functional, cell-based; conditions: Homo sapiens
[15] = target: T1, Ubiquitin-conjugating enzyme E2 N (Homo sapiens, UniProt P61088); assay type: functional;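 also: Dose-response confirmation in a TR-FRET assay detecting UBC13-driven polyubiquitin chain formation, inhibition measured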
T1 sequence (P61088 whole entry): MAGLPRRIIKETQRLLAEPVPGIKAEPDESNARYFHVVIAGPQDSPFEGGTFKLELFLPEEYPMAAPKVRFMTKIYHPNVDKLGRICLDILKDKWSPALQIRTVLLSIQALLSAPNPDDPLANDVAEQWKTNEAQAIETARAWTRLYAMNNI

[16] = target: T2, Streptokinase A (Streptococcus pyogenes serotype M1, UniProt P10520); assay: viability-normalized secreted streptokinase activity reduction – plasminogen activation absorbance, OD405, dose response (AID 1914); assay type: functional, Streptococcus pyogenes M1 GAS;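 also: secreted streptokinase activity via plasminogen activation per viability signal from cell pellet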
T2 sequence (P10520 whole entry): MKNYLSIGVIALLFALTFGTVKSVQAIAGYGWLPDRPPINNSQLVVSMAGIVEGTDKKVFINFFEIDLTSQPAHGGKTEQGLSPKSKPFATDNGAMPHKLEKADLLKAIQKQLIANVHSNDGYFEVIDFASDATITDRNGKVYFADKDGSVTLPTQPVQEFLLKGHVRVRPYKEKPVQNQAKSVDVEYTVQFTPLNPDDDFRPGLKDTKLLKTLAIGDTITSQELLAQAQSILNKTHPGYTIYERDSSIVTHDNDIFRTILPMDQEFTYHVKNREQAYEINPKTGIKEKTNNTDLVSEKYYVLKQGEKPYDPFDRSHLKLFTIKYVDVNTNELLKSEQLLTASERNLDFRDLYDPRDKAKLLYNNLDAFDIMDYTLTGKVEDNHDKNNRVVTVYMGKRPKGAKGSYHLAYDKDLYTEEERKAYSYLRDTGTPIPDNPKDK

[17] = system: HEK293; assay: cells; assay type: functional, cell-based; conditions: Homo sapiens; remark: listed apart in the source
[18] = system: HEK293; assay: cells; assay type: functional, cell-based; conditions: Homo sapiens; remark: listed apart in the source
[19] = system: Escherichia coli; assay: microbe, parasite or virus in culture; remark: listed apart in the source
[20] = target: T3, Estrogen receptor (Homo sapiens, UniProt P03372);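 also: potency for inhibiting coactivator peptide recruitment to the receptor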
T3 sequence (P03372 whole entry): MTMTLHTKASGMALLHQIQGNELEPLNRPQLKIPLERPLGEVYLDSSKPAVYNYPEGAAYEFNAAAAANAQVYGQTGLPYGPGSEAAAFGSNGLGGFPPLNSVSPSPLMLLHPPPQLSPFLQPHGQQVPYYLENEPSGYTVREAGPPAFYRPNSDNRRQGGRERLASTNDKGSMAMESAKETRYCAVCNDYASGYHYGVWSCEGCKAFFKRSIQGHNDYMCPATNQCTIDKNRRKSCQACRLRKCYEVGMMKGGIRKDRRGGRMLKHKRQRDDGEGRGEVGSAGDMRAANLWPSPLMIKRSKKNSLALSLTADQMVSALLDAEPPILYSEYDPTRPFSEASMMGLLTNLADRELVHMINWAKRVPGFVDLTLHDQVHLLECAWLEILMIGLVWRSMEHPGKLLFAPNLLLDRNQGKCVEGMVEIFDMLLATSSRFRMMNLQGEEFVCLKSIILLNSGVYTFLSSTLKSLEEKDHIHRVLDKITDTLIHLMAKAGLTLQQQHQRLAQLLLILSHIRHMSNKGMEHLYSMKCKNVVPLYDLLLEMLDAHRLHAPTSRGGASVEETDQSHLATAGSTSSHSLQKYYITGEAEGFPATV

Cytochrome P450 2C9, sequence (P11712 whole entry): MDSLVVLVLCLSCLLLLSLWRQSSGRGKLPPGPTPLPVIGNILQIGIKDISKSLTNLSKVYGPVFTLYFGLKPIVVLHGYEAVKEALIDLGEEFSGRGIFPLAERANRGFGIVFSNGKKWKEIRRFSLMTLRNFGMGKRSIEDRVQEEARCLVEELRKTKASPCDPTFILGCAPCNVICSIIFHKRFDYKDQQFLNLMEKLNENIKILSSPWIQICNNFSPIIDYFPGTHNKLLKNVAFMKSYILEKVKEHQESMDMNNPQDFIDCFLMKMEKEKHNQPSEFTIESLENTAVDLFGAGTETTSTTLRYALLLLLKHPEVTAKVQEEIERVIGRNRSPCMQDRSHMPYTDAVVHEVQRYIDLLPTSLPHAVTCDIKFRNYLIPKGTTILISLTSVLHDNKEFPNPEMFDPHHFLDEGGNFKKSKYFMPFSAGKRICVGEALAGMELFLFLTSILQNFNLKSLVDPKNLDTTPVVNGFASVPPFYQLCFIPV

In the case of N#Cc1c(-c2ccccc2)cc(C2CC2)nc1N, the EC50 [1] is reported as > 59.7 µM (inactive) and the EC50 [2] is reported as > 59.7 µM (inactive).

For CCN(CC)S(=O)(=O)N1CCC(C(=O)NC2CCCC2)CC1, the AC50 [3] was 3.16 µM (inconclusive), the AC50 [4] was 39.8 µM (inconclusive) and the AC50 [5] was 15.8 µM (inconclusive). For the same compound, the AC50 [6] was 26.2 µM (active).

In the case of CCOC(=O)c1c(NC(=O)/C=C/c2ccc3c(c2)OCO3)sc(C)c1C, the AC50 [7] is reported as “inconclusive”.

With Cc1nc(Nc2cnc(/C=C/c3cc(C(=O)Nc4cccc(C(F)(F)F)c4)ccc3C)cn2)cc(N2CCNCC2)n1 the AC50 [8] was 8.7 µM (active), the EC50 [9] was 8.28 µM (active) and the EC50 [10] was 6.39 µM (active). For the same compound, the EC50 [11] was > 150 µM (not active), the IC50 [12] was > 20 µM (inactive) and the EC50 [13] was 7.82 µM (active). For the same compound, the IC50 [14] was > 20 µM (inactive), the IC50 [15] was > 20 µM (inactive) and the EC50 [16] was 11.4 µM (active). The IC50 [17] was > 20 µM (inactive) and the IC50 [18] was > 20 µM (inactive).

For Cc1occc1C(=O)NCc1cccc(CNC(=O)c2ccoc2C)c1, the AC50 [19] was 21.6 µM (active) and the IC50 [20] was 19.7 µM (active).
